The values below come from patent US9937260B2, “Curcumin conjugates for treating and preventing cancers” (BOARD OF SUPERVISORS OF LOUISIANA STATE UNIVERSITY AND …, priority 2008, dated 2018).

Data set [1] relates to MIAPaCa-2, BxPC-3 and PANC-1 pancreatic cancer cells. Briefly: Modified MTT cytotoxicity assay. The class given is cell-based, human. As for the experimental part:
Pancreatic cell lines MIAPaCa-2, BxPC-3, and PANC-1 were obtained from the American Type Culture Collection. All cell lines were cultured in DMEM supplemented with 10% FBS, 100 units/mL penicillin, and 100 μg/mL streptomycin. The presence and location of LHRH-receptors in these pancreatic cancer cell lines was determined by immunochemical methods.
The cytotoxicity of the peptides was determined with a modified MTT (3-(4, 5-dimethylthiazol-2-yl)-2, 5-diphenyltetrazolium bromide) assay. Briefly, MIAPaCa-2, BxPC-3 and PANG-1 cells (2000/well) were separately incubated in 96-well plates in triplicate in a cell growth medium with different concentrations of LHRH, LHRH-Curcumin, Curcumin, and LHRH-Phor21. Three wells served as controls, each receiving an equivalent volume of medium. After 24 hours, an MTT solution (5 mg/ml in PBS) was added to each well and incubated for 2 hours at 37° C., followed by extraction with buffer (20% SDS and 50% dimethylformamide). The cells were incubated overnight at 37° C. Optical absorbance of the cell suspension was then measured at 590 nm using an MRX Revelation 96-well multiscanner (Dynex Technologies, Chantilly, Va.). From these measurements the IC50 doses of the peptides were calculated. […] Values given are mean±SD of triplicate cultures.

Data set [2] deals with luciferase-transfected MIAPaCa-2 xenograft tumors. Kind of data set: Human pancreatic cancer xenograft in female athymic nude mice. Format: in vivo. From the text: MIAPaCa-2, a cell line expressing the LHRH receptor, was then used for in vivo experiments. We stably transfected MIAPaCa-2 cells with a gene encoding luciferase. We used the transfected cells to produce a pancreatic cancer xenograft mouse model.
Forty-eight female nude mice (athymic Balb/c, 4-5 weeks old) were obtained from a commercial vendor (Charles River Laboratories, Wilmington, Mass.), and caged individually in a room maintained at constant temperature and humidity under a 12-h light and darkness cycle, and fed a regular, autoclaved chow diet with water ad libitum. […]
After the tumors were established (100-250 mm^3), the 48 mice were randomized into six different treatment groups (n=8 mice per group): (1) LHRH alone, (2) LHRH-Curcumin, (3) LHRH-Phor21, (4) unconjugated LHRH and Phor21, (5) vehicle control, and (6) a control group of tumor-bearing mice that were necropsied before treatment (baseline controls). […] Tumor volumes and mice body weights were measured twice weekly, and mice were necropsied one week after the last treatment. At necropsy, tumors, ovaries, kidneys, pancreases, lungs, spleen, several bones, and liver were removed and weighed, and metastastic cell numbers were measured by luciferase assay. The tumor volumes and weights were analyzed by one-way ANOVA, and compared among groups using an unpaired Student's t-test. […]

For data set [3], the system named is advanced pancreatic cancer. The conditions noted are these: cited from earlier work.
Data set [4] has as its system caspase-3/7. Briefly: Apo-ONE homogenous caspase-3/7 assay in MIAPaCa-2 cells. Format: cell-based, human. The conditions noted are these: 5 μM, 24 hours, p<0.05, FIG. 6. As for the experimental part:
We also directly measured the effect of LHRH-curcumin on caspase 3 enzyme activity with the Apo-ONE homogenous caspase-3/7 assay kit (Promega, Madison, Wis.). This assay uses a profluorescent substrate with an optimized, bifunctional cell lysis/activity buffer. MIAPaCa-2 cells were treated in triplicate (10,000 cells per well) with the free peptide LHRH, or with the LHRH-Curcumin conjugate, in each case at a 5 μM concentration, and incubated for 24 hours. Following the 24 hour incubation, the Apo-ONE homogenous caspase-3/7 assay was performed according to the manufacturer's protocol. The buffer and 100 μL Apo-ONE caspase-3/7 assay reagent were mixed and added to the samples. Cells were then incubated for an additional hour prior to fluorescence measurements. Upon sequential cleavage and removal of the Asp-Glu-Val-Asp peptide (SEQ ID NO. 10) by caspase-3/7 activity, the rhodamine 110 leaving group became intensely fluorescent with excitation at 499 nm and an emission maximum at 512 nm. The excitation/emission was recorded on a FlexStation (Molecular Devices, Sunnyvale, Calif.) with softMax Pro version 4.8 software. The experiment was conducted in duplicate. Statistical significance was determined by a two-tailed Students t-test, using GraphPad Prism software version 5.0.

Non-standard residues stand in square brackets, D forms with d. Residues, ends and D or L forms follow the SMILES beside them. pGlu = O=C1CC[C@@H](C(=O)O)N1

Take `CC(C)C[C@H](NC(=O)CNC(=O)[C@H](Cc1ccc(O)cc1)NC(=O)[C@H](CO)NC(=O)[C@H](Cc1c[nH]c2ccccc12)NC(=O)[C@H](Cc1c[nH]cn1)NC(=O)[C@@H]1CCC(=O)N1)C(=O)N[C@@H](CCCNC(=N)N)C(=O)N1CCC[C@H]1C(=O)NCC(=O)N[C@@H](CCCCN)C(=O)N[C@@H](Cc1ccccc1)C(=O)N[C@@H](C)C(=O)N[C@@H](CCCCN)C(=O)N[C@@H](Cc1ccccc1)C(=O)N[C@@H](C)C(=O)N[C@@H](CCCCN)C(=O)N[C@@H](CCCCN)C(=O)N[C@@H](Cc1ccccc1)C(=O)N[C@@H](C)C(=O)N[C@@H](CCCCN)C(=O)N[C@@H](Cc1ccccc1)C(=O)N[C@@H](C)C(=O)N[C@@H](CCCCN)C(=O)N[C@@H](CCCCN)C(=O)N[C@@H](Cc1ccccc1)C(=O)N[C@@H](C)C(=O)N[C@@H](CCCCN)C(=O)N[C@@H](Cc1ccccc1)C(=O)N[C@@H](C)C(=O)N[C@@H](CCCCN)C(=O)O` [LHRH-Phor21] ([pGlu]HWSYGLRPGKFAKFAKKFAKFAKKFAKFAK-OH; C-terminus assumed): the relative cytotoxicity result in data set [1] is reported as “greater cytotoxicity than that of LHRH-Curcumin”. In data set [2] (FIG. 5(D)), the “mice body weights as indicators of potential toxicity” value is given as “not significantly different from control”. In data set [2] (tail vein injections), the side effects result was “some inflammation was seen in the mice tails at the site of injections”.

For the compound `COc1cc(/C=C/C(=O)CC(=O)/C=C/c2ccc(O)c(OC)c2)ccc1O` [Curcumin, diferuloylmethane], the “inhibition of proliferation of pancreatic cancer cells” value in data set [1] (24 hours, MTT, FIGS. 2(A)-2(C)) is “inhibited the proliferation of pancreatic cancer cells”. Further, the bioavailability entry in data set [3] (oral administration) was “poor bioavailability”. Also, the “patients with clinical biological activity” value in data set [3] (oral, advanced pancreatic cancer) was 2 of 21.

“pGlu-His-Trp-Ser-Tyr-Gly-Leu-Arg-Pro-Gly [LHRH]”: the caspase-3/7 activity entry in data set [4] was “significantly increased”.
